In patent US9725490B2, “ERAP1-derived peptide and use thereof” (TOKUSHIMA UNIVERSITY, priority 2011, dated 2017):

How the values were obtained:
[1] = system: transcriptional activity of ERα (ERE); assay: ERE-luciferase reporter assay in MCF-7 cells; format: cell-based, human; conditions: 10 nM E2 24 hours
Procedure: FIG. 3-2 is a diagram illustrating promotion effect of PHB2 nuclear translocation and suppression effect of the transcriptional activation of ER by ERAP1-peptide treatment. (C) illustrates representative images of stained immune cells, showing the localization of the ERAP1-peptide (HA-tagged ERAP1-peptide) and PHB2. MCF-7 cells were treated with 10 μM HA-tagged ERAP1-peptide for 24 hours in the presence or in the absence of 10 nM E2. After the immobilization, the cells were subjected to immunonfluorescent staining using an anti-HA antibody, an anti-PHB2 antibody and DAPI (for discriminating the nucleus). The arrow indicates the nuclear-translocated ERAP1-peptide. […] Then, immediately, the cells were stimulated with 10 nM E2 for 24 hours. TAM indicates the tamoxifen treatment.
FIG. 3-3 is as diagram illustrating the results of the luciferase assay by which the inhibition effect of the ERAP1-peptide was evaluated. MCF-7 cells temporarily transfected with an ERE-luciferase reporter vector (F) or an AP-1-luciferase reporter vector (F) were treated with the ERAP1-peptide, the scramble peptide or the mutant peptide in the concentrations shown in the […]. Then, immediately, the cells were stimulated with 10 nM E2 for 24 hours. TAM indicates the tamoxifen treatment.
FIG. 4-3 is a diagram illustrating that the ERAP1-peptide promotes nuclear translocation of PHB2. (C) and (D) are figures that show the results of the luciferase assay by which the inhibition effect of the ERAP1-peptide on the ERα transcriptional activity was evaluated. MCF-7 cells temporarily transfected with an ERE-luciferase reporter vector (C) or an AP-1-luciferase reporter vector (D) were treated with the ERAP1-peptide in the concentrations shown in the figure or 10 nM tamoxifen. Then, immediately, the cells were stimulated with 10 nM E2 thr 24 hours.
For ERE reporter assay, MCF-7 cells were transfected with ERE reporter (SABiosciences, Frederick, Md., USA) in accordance with the instruction of the manufacturer. For AP-1 reporter assay, MCF-7 cells were transfected with AP-1 reporter (mouse IL-11 promoter comprising two tandem AP-1 sites subcloned into PGL2-basic vector), c-fos, c-Jun and pRL-TK as an internal standard. After 16 hours from the transfection, the culture medium was exchanged with an assay culture medium (Opti-MEM, 10% FBS, 0.1 mM NEAA, 0.1 mM Sodium pyruvate and 10 μg/ml insulin) After 24 hours from the transfection, the cells were treated with E2 and/or the ERAP1-peptide or 24 hours. The cells were harvested, and the activities of luciferase and Renilla-luciferase were evaluated using Promega dual luciferase reporter assay (Tokyo, Japan). In consideration of the transfection efficiency, all of the data were standardized by the activity of Renilla-luciferase.

[2] = system: KPL-3C tumor; assay: Inhibition of tumor proliferation in vivo, KPL-3C orthotopic transplant; design: species or system BALB/c nude mouse; conditions: for Ser39 phosphorylation of PHB2/REA in the tumor: 14 mg/kg; for antitumor effect (tumor volume): E2 6 μg/day, 2 weeks
Procedure: FIG. 11-1 is a diagram illustrating that the ERAP1-peptide inhibits tumor proliferation in a mouse orthotopically transplanted with human breast cancer. (A) and (B) show the influence of the ERAP1-peptide on the tumor volume. […] were subcutaneously transplanted into the breast fat body of as BALB/c nude mouse. The treatment test (5 individuals/group) was initiated (day 0) when the volume of the tumor in the absence E2 reached about 50-80 mm^3. The ERAP1-peptide (14, 35 and 70 mg/kg), the scramble peptide (14, 35 and 70 mg/kg) or tamoxifen (4 mg/kg) was administered every day by intraperitoneal injection to a cancerous mouse orthotopically transplanted with KPL-3C tumor. At the same time, E2 (6 μg/day) was administered subcutaneously every day.
FIG. 11-3 is a diagram illustrating that the ERAP1-peptide inhibits tumor proliferation in a mouse orthotopically transplanted with human breast cancer. […] The mouse was euthanatized on day 14, and the tumor was removed, and the expression level of the downstream genes in each tumor was obtained by quantitative RT-PCR.
FIG. 11-4 is a diagram illustrating that the ERAP1-peptide inhibits tumor proliferation in a mouse orthotopically transplanted with human breast cancer.
FIG. 27 is a diagram illustrating the inhibition effect of the ERAP1-peptide on tumor proliferation in a mouse orthotopically transplanted with human breast cancer. […] KPL-3 cells were subcutaneously transplanted into the breast fat body of a BALB/c nude mouse. The treatment test (5 individuals/group) was initiated (day 0) when the volume of the tumor reached about 50-80 mm^3 in the absence of E2. To a cancerous mouse orthotopically transplanted with KPL-3C tumor, the ERAP1-peptide (Peptide: 14 mg/kg) or the ERAP1-scramble peptide (scrPeptide: 14 mg/kg) was administered every day by intraperitoneal injection. At the same time, E2 (6 μg/day) was administered subcutaneously every day. On day 14, the mouse was euthanatized, and the tumor was removed, and phosphorylation of PHB2/REA (S39) in each tumor was evaluated with immunoblotting analysis. […] The tamoxifen-resistant MCF7-cells (Tam-R MCF-7) were subcutaneously transplanted into the breast fat body of a BALB/c nude mouse, and the treatment test (5 individuals/group) was initiated (day 0) when the volume of the tumor reached about 50-80 mm^3 in the presence of tamoxifen (37 ng/day, 1.85 μg/kg). To a cancerous mouse orthotopically transplanted with Tam-R MCF-7 tumor, the ERAP1-peptide (Peptide: 3.5, 7 and 14 mg/kg) or the ERAP1-scramble peptide (scrPeptide: 14 mg/kg) was administered every day by intraperitoneal injection. At the same time, E2 (6 μg/day) was administered subcutaneously every day: Tam-R MCF-7 heterotransplanted tumor at day 21 and the mean tumor volume±SE (n=5) are shown. *P<0.05, **P<0.01, ***P<0.001.
KPL-3C cell suspension (1×10^7 cells/mouse) was mixed with the same amount of Matrigel (BD). This mixture was injected into the breast fat body of 6 weeks old female BALB/c nude mouse (CLEA Japan, Tokyo, Japan). The mouse was kept in a sterile isolated facility with a cycle of 12 hour light period/12 hour dark period, and freely fed with rodent food and water. The tumor was grown over 1 week until the size thereof reached 50 to 80 mm^3 (calculated as ½×(width×length^2)). Then, the mice were randomly divided into nine treatment groups (5 individuals/group): no treatment group, 6 μg/day E2 treatment group, E2+0.28 mg/day ERAP1-peptide treatment group, E2+0.7 mg/day ERAP1-peptide treatment group, E2+1.4 mg/day ERAP1-peptide treatment group, E2+0.28 mg/day of the scramble peptide treatment group, E2+0.7 mg/day of the scramble peptide treatment group, E2+1.4 mg/day of the scramble peptide treatment group, and E2+83 μg/day tamoxifen treatment group. The mouse was treated every day with 6 μg/day E2 solution (100 μl 2.2×10^−4 M) on the neck skin. […]

[3] = 14, 35, 70 mg/kg intraperitoneal every day

Compound | transcriptional activity of ERα in ERE [1] | Ser39 phosphorylation of PHB2/REA in the tumor ([2]; tumor removed day 14) | change of the body weight [2, 3] | antitumor effect (tumor volume) [2, 3] | expressions of ERα target genes PS2, cyclin D1, C-Myc, SP-1 in the tumor ([2]; tumor removed day 14) | phosphorylations of Akt and MAPK in the tumor ([2]; tumor removed day 14)
CSCC[C@H](NC(=O)[C@H](CCC(N)=O)NC(=O)[C@H](CCCNC(=N)N)NC(=O)[C@H](CCCNC(=N)N)NC(=O)[C@H](CCCNC(=N)N)NC(=O)[C@H](CCCNC(=N)N)NC(=O)[C@H](CCCNC(=N)N)NC(=O)[C@H](CCCNC(=N)N)NC(=O)[C@H](CCCNC(=N)N)NC(=O)[C@H](CCCNC(=N)N)NC(=O)[C@H](CCCNC(=N)N)NC(=O)[C@H](CCCNC(=N)N)NC(=O)[C@@H](N)CCCNC(=N)N)C(=O)N[C@@H](CC(C)C)C(=O)N[C@@H](CO)C(=O)N[C@@H](CC(=O)O)C(=O)N[C@@H](CC(C)C)C(=O)N[C@H](C(=O)N[C@@H](CC(C)C)C(=O)N[C@@H](CCC(N)=O)C(=O)N[C@@H](CC(C)C)C(=O)N[C@@H](CCCNC(=N)N)C(=O)N[C@@H](CCC(N)=O)C(=O)N[C@@H](CCCNC(=N)N)C(=O)O)[C@@H](C)O [ERAP1-peptide] | suppressed the transcriptional activity of ERα | phosphorylation of Ser39 of PHB21/REA was confirmed | change of the body weight was not recognized | the antitumor effect was recognized | completely suppressed | suppression for the phosphorylations of the non-genomic activation signal routes, i.e., Akt and MAPK, was also confirmed
DRQLQLSTLQRML (SEQ ID NO: 28) (ERAP1-scramble peptide) [reference compound] | no change was recognized | the phosphorylation of PHB2/REA was not recognized | – | significant tumor suppression effect was not recognized in any of the doses | suppression for the expression was not recognized | –
